Results reported in US20210261539A1, “COMPOUND HAVING BET INHIBITORY ACTIVITY AND PREPARATION METHOD AND USE THEREFOR” (Shanghai Haihe Pharmaceutical Co., Ltd., priority 2018, published 2021).
pIC50: −log10 of the molar value.

molecular target: T1, BRD4 BD1 (Homo sapiens, UniProt O60885); test: HTRF in vitro enzyme activity assay, inhibition of BRD4 BD1 binding to acetylated H4 peptide; conditions: IC50 values of the compounds against BRD4 BD1 binding; class symbols A/B/C
T1 construct: Protein BRD4 BD1 used in the assay was purchased from Active Motif (cat. 31380); purchased Active Motif 31380
Procedure: Effect Examples: In Vitro Enzyme Activity Assay
Half inhibitory activity (IC50) of the compounds of the invention against the bromodomain protein BRD4 BD1 was determined in the present Examples.
The compounds of the invention were tested for inhibitory activity against BRD4 BD1 with Homogeneous Time-Resolved Fluorescence (HTRF).
2. Reagents, Consumable Materials and Instruments:
Protein BRD4 BD1 used in the assay was purchased from Active Motif (cat. 31380); streptavidin XL-665 (#610SAXLA) and EPIgeneous Binding Domain Kit A (#62BDAPEG) were both purchased from Cisbio Bioassays; [Lys(5,8,12,16)Ac] H4(1-21)-biotin (#64989), [Lys(5,8,12,16)Ac]H4(1-25) were available from Anaspec; OTX015 and ABBV-075 were purchased from Selleckchem Co. The 384-well ProxiPlate (#6008280) was purchased from Perkinelmer Co. The Laboratory microplate reader (Envision 2104) was available from PerkinElmer Co. The water used in the assay was Millipore-Q pure water.
3. Formulation of the Compound
10 mM DMSO stock solution of the test compound was diluted to 1 mM in DMSO, and then diluted 10-fold in Binding Domain dilution buffer (purchased from Cisbio Bioassays) for use (DMSO concentration in the final system was 0.1%), including 5 concentrations in 1:5 gradient.
4. Assay Protocol: 1 Batch, 2 Repeats
1) 5 μL of test compound was transferred to 45 μL Binding Domain dilution buffer.
2) 2 μL of 1× compound (4 μL Binding Domain dilution buffer: positive control; 6 μL enzyme buffer (purchased from Cisbio Bioassays): negative control) was transferred to a reaction plate.
3) 4 μL of 5×BRD 4(1) was added to the reaction plate (30 nM in the final system).
4) 4 μL of 5×[Lys(5,8,12,16)Ac] H4(1-21)-biotin was added to the reaction plate, and the plate was covered with a film and incubated at 37° C. for 30 min.
5) A detection mixture of SA-XL665 (2×) and anti-H3K9me0-Eu(K) (2×) was prepared in detection buffer (purchased from Cisbio Bioassays).
6) 10 μL of detection mixture (2×) was added to each well, incubated at RT for 3 h. The mp value was read by microplate reader Envision with the following parameters: […]

SMILES	pIC50
C[C@H]1Oc2nc(N3C(=O)c4c([S+](C)[O-])cccc4C3(O)c3cccnc3)ccc2N(C)C1=O (single isomer, unassigned) [Example A129-P3]	7.00 to 8.00
C[C@H]1Oc2nc(N3C(=O)c4cc(F)ccc4C3c3cccnc3)ncc2N(C)C1=O (stereo partly drawn) [Example A116-P3, (7R)-2-(5-fluoro-3-oxo-1-(pyridin-3-yl)isoindolin-2-yl)-5,7-dimethyl-5H-pyrimido[4,5-B][1,4]oxazin-6(7H)-one]	6.00 to 7.00
CC1Oc2nc(N3C(=O)c4ccccc4C3c3ccc(F)cc3)ccc2N(CC(F)(F)F)C1=O (single isomer, unassigned) [Example A120-P1, 6-(1-(4-fluorophenyl)-3-oxoisoindol-2-yl)-3-methyl-1-(2,2,2-trifluoroethyl)-1H-pyrido[2,3-B][1,4]oxazin-2(3H)-one]	6.00 to 7.00
C[C@H]1Oc2cc(N3C(=O)c4ccccc4C3c3ccc(F)nc3)ncc2N(C)C1=O (single isomer, unassigned) [Example A125-P1]	6.00 to 7.00
C[C@H]1Oc2nc(N3C(=O)c4c(cccc4C(C)(C)O)C3c3ccc(F)cc3)ccc2N(C)C1=O (single isomer, unassigned) [Example A119-P1]	≥ 8.00
CCN1C(=O)[C@@H](C)Oc2nc(N3C(=O)c4ccccc4C3c3cccnc3)ccc21 (stereo partly drawn) [Example A108-P3, (R)-1-ethyl-3-methyl-6-(1-oxo-3-(pyridin-3-yl)isoindolin-2-yl)-1H-pyrido[2,3-B][1,4]oxazin-2(3H)-one]	7.00 to 8.00
CC1C(=O)N(C)c2ccc(N3C(=O)CCC3c3ccc(Cl)cc3)nc2N1C1CC1 (stereo not drawn) [Example A3-P3, 4-cyclopropyl-6-(2-(4-chlorophenyl)-5-oxopyrrolidin-1-yl)-1,3-dimethyl-3,4-dihydropyrido[2,3-b]pyrazin-2(1H)-one]	≥ 8.00
CC1C(=O)N(C)c2ccc(N3C(=O)NCC3c3ccccc3)nc2N1C1CC1 (single isomer, unassigned) [Example A18-P4, 4-cyclopropyl-1,3-dimethyl-6-(2-oxo-5-phenylimidazolidin-1-yl)-3,4-dihydropyrido[2,3-b]pyrazin-2(1H)-one]	≥ 8.00
CC1C(=O)N(C)c2ccc(N3C(=O)CCN3c3ccc(Cl)cc3)nc2N1C1CC1 (single isomer, unassigned) [Example A10-P2, 6-(2-(4-chlorophenyl)-5-oxopyrazolidin-1-yl)-4-cyclopropyl-1,3-dimethyl-3,4-dihydropyrido[2,3-b]pyrazin-2(1H)-one]	7.00 to 8.00
C[C@@H]1C(=O)N(C)c2ccc(N3C(=O)CCC3c3ccccc3)nc2N1C (single isomer, unassigned) [Example A4-P2]	≥ 8.00
Cc1ccc(C2c3ccccc3C(=O)N2c2nc3c(cc2F)N(C)C(=O)[C@@H](C)O3)cn1 (stereo partly drawn) [Example A114-P3, (R)-7-fluoro-1,3-dimethyl-6-(1-(6-methylpyridin-3-yl)-3-oxoisoindolin-2-yl)-1H-pyrido[2,3-b][1,4]oxazin-2(3H)-one]	6.00 to 7.00
CC1C(=O)N(CCF)c2ccc(N3C(=O)c4ccccc4C3c3cccnc3)nc2N1C1CC1 (stereo not drawn) [Example A52-P4, 4-cyclopropyl-1-(2-fluoroethyl)-3-methyl-6-(1-oxo-3-(pyridin-3-yl)isoindolin-2-yl)-3,4-dihydropyrido [2,3-b]pyrazin-2(1H)-one]	≥ 8.00
CC1C(=O)N(C)c2cnc(N3C(=O)c4ccccc4C3c3ccc(C(F)(F)F)cc3)nc2N1C1CC1 (single isomer, unassigned) [Example A93-P4, 8-cyclopropyl-5,7-dimethyl-2-(1-oxo-3-(4-(trifluoromethyl)phenyl)isoindolin-2-yl)-7,8-dihydropteridin-6(5H)-one]	≥ 8.00
C[C@@H]1C(=O)N(C)c2cnc(N3C(=O)c4cc(F)ccc4C3c3cccnc3)nc2N1C1CC1 (stereo partly drawn) [Example A95-P4, (7R)-8-cyclopropyl-2-(5-fluoro-3-oxo-1-(pyridin-3-yl)isoindolin-2-yl)-5,7 dimethyl-7,8-dihydropteridin-6(5H)-one]	≥ 8.00
CC1C(=O)N(C)c2ccc(N3C(=O)c4ccccc4C3c3ccc(Cl)cc3)nc2N1CCO (racemic) [Example A34, 6-(1-(4-chlorophenyl)-3-oxoisoindolin-2-yl)-4-(2-hydroxyethyl)-1,3-dimethyl-3,4-dihydropyrido [2,3-b]pyrazin-2(1H)-one]	≥ 8.00
CC1C(=O)N(C)c2ccc(N3C(=O)CCC3c3cccnc3)nc2N1C1CC1 (single isomer, unassigned) [Example A14-P1, 4-cyclopropyl-1,3-dimethyl-6-(2-oxo-5-(pyridin-3-yl)pyrrolidin-1-yl)-3,4-dihydropyrido[2,3-b]pyrazin-2(1H)-one]	≥ 8.00

Second part, the molecule after the results:

pIC50	SMILES
≥ 8.00	CSc1cccc2c1C(=O)N(c1ccc3c(n1)N(C)[C@H](C)C(=O)N3C)C2c1cccnc1 (mixture of isomers) [Example A61, (3R)-1,3,4-trimethyl-6-(4-(methylthio)-3-oxo-1-(pyridin-3-yl)isoindolin-2-yl)-3,4-dihydropyrido[2,3-b]pyrazin-2(1H)-one]
≥ 8.00	C[C@@H]1C(=O)N(C)c2ccc(N3C(=O)c4ccccc4C3c3cccnc3)nc2N1C (stereo partly drawn) [Example A48-P4, (3R)-1,3,4-trimethyl-6-(1-oxo-3-(pyridin-3-yl)isoindolin-2-yl)-3,4-dihydropyrido [2,3-b]pyrazin-2-(1H)-one]
≥ 8.00	CC1C(=O)N(C)c2ccc(N3C(=O)c4c(cccc4[S+](C)[O-])C3c3cccnc3)nc2N1C1CC1 (single isomer, unassigned) [Example A60-P2]
≥ 8.00	C[C@@H]1C(=O)N(C)c2cnc(N3C(=O)c4ccccc4C3c3cccnc3)nc2N1C (stereo partly drawn) [Example A90-P4, (7R)-5,7,8-trimethyl-2-(1-oxo-3-(pyridin-3-yl)isoindolin-2-yl)-7,8-dihydropteridin-6(5H)-one]
≥ 8.00	CC1C(=O)N(C)c2ccc(N3C(=O)c4ccccc4C3c3cccnc3)nc2N1C1COC1 (stereo not drawn) [Example A54-P4, 1,3-dimethyl-4-(oxetan-3-yl)-6-(1-oxo-3-(pyridin-3-yl)isoindolin-2-yl)-3,4-dihydropyrido [2,3-b]pyrazin-2(1H)-one]
≥ 8.00	CNC(=O)c1cccc2c1C(=O)N(c1ccc3c(n1)N(C1CC1)C(C)C(=O)N3C)C2c1cccnc1 (single isomer, unassigned) [Example A83-P3]
≥ 8.00	CC1C(=O)N(C)c2ccc(N3C(=O)c4ccccc4C3c3cccnc3)nc2N1C1(C)CC1 (stereo not drawn) [Example A47-P4, 1,3-dimethyl-4-(1-methylcyclopropyl)-6-(1-oxo-3-(pyridin-3-yl)isoindolin-2-yl)-3,4-dihydropyrido [2,3-b]pyrazin-2(1H)-one]
≥ 8.00	C[C@H]1Oc2nc(N3C(=O)c4sccc4C3c3cccnc3)ccc2N(C)C1=O (single isomer, unassigned) [Example A115-P1]
≥ 8.00	C[C@@H]1C(=O)N(C)c2ccc(N3C(=O)c4c(cccc4S(C)(=O)=O)C3c3cccnc3)nc2N1C (single isomer, unassigned) [Example A62-P1]
≥ 8.00	C[C@@H]1C(=O)N(C)c2ccc(N3C(=O)c4c(C(=O)NC5CC5)cccc4C3c3ccccc3)nc2N1C (stereo partly drawn) [Example A87-P4, N-cyclopropyl-3-oxo-1-phenyl-2-((R)-1,3,4-trimethyl-2-oxo-1,2,3,4-tetrahydropyrido[2,3-b]pyrazin-6-yl)isoindoline-4-carboxamide]
≥ 8.00	C[C@H]1Oc2nc(N3C(=O)c4c(cccc4[S+](C)[O-])C3c3cccnc3)ccc2N(C)C1=O (single isomer, unassigned) [Example A127-P1]
